“And” between values parts separate entries of the source, which are not always exact repeats. Identical values can stand only once.
Key:
rats [1] = settings: Brewer et al. 1994; cited from earlier work
rats [2] = experiment: Further testing in a group of rats (mortality); settings: 40 mg/kg/day
CD® rats = experiment: Two-week toxicity study in CD rats; type: in vivo
Description: As a bellwether, the toxicity of trioxane T7 has been evaluated and compared with that of artemether in CD® rats following two weeks of oral administration (gavage) and intramuscular injection, respectively. Trioxane T7 was administered at doses of 0, 15, 30, and 60 mg/kg/day in Lipomul® emulsion, while artemether was dosed at 0, 10, 20, and 40 mg/kg/day.

dogs = settings: Brewer et al. 1994; cited from earlier work
[3] = tested on: MDA-468 breast cancer cell line; experiment: Annexin V apoptosis assay, fast proliferating MDA-468 breast cancer cells; settings: MDA-468, 48 hours, vehicle baseline 13-18%
Description: (§2) The same experimental set-up was also utilized to test the synergistic capacity of trioxane T59 with imatinib.
(§3) The test read-out was the Annexin V apoptosis assay kit from Becton-Dickinson, which detects the presence of the Annexin V protein on the surface of cells undergoing apoptosis and positivity toward propidium iodide for dead cells.

[4] = tested on: MCF-7 breast cancer cell line; experiment: Annexin V apoptosis assay, poorly proliferating MCF-7 breast cancer cells; settings: MCF-7, 48 hours, vehicle baseline 13-18%
Description: as §2, §3

[5] = tested on: human follicular lymphoma cell line (DoHH2); experiment: Annexin V apoptosis assay, follicular lymphoma cell line DoHH2; type: cell-based; settings: DoHH2, 48 hours, 25 μM alone
Description: (§1) Next the cells were cultivated in the same way, but in the combined presence of dasatinib (25 μM) and the individual trioxanes T16, T45, and T7 in concentrations of 1.0 and 10 μM (see Tables below). As mentioned above, the Annexin V apoptosis assay was used to detect the Annexin V protein on cells undergoing apoptosis. Dead cells (post-apoptopic) were determined by positivity toward propidium iodide. The percentages of apoptopic, post-apoptopic cells, and their total are shown for each test. […] Synergy is noted as moderate (*), high (**), or exceptionally high (***).
Human Follicular Lymphoma (DoHH2)

[6] = tested on: human Burkitt's lymphoma cell line (Raji); experiment: Annexin V apoptosis assay, Burkitt's lymphoma cell line Raji; type: cell-based; settings: 48 hours, 25 μM alone
Description: as §1
Human Burkitt's Lymphoma (Raji)

## CO[C@H]1O[C@@H]2O[C@@]3(C)CC[C@H]4[C@H](C)CC[C@@H]([C@H]1C)[C@@]24OO3 [artemether]
Rats [1]
  reported toxicity: neurotoxicity
Rats [2]
  mortality: killed most of the rats
CD® rats; two weeks intramuscular injection, 10, 20, 40 mg/kg/day
  toxic effects: CNS excitability, neuronal chromatolysis, and gliosis in the brain stem
CD® rats; two weeks intramuscular injection, mid-dose (of 10, 20, 40 mg/kg/day)
  toxic effects at mid-dose: neurotoxic manifestations were observed, including hematoxicity and hepatotoxicity
dogs
  reported toxicity: neurotoxicity

## Cc1ccc(NC(=O)c2ccc(CN3CCN(C)CC3)cc2)cc1Nc1nccc(-c2cccnc2)n1 [Imatinib, imatinib]
[3]; 10 μM alone
  percentage of dead cells (dead+apoptotic): 13.60% and 13.16%
[4]; 10 μM alone
  percentage of dead cells (dead+apoptotic): 14.05% and 14.15%

## Oc1ccc(C=Cc2cc(O)cc(O)c2)cc1 [Resveratrol, resveratrol]
[3]; 1 μM alone
  percentage of dead cells (dead+apoptotic): 11.30%
[4]; 1 μM alone
  percentage of dead cells (dead+apoptotic): 16.05%

## Cc1nc(Nc2ncc(C(=O)Nc3c(C)cccc3Cl)s2)cc(N2CCN(CCO)CC2)n1 [Dasatinib, dasatinib]
[5]
  Apoptopic Cells, in %: 4.58%
  Post-apoptopic Cells, in %: 11.76%
[5]; vehicle baseline 13-18%
  Total Dead Cells, in %: 16.34%
[6]
  Apoptopic Cells, in %: 7.9%
  Post-apoptopic Cells, in %: 15.18%
[6]; vehicle baseline 13-18%
  Total Dead Cells, in %: 23.15%

From patent publication US9763915B2, “Adjuvants in anti-cancer chemotherapy” (PharmOxaco SáRL, priority 2013, dated 2017)
